Legend:
[1] = target: T1, MBP-eAPP230-624 (Homo sapiens, UniProt P05067); experiment: Small-angle X-ray scattering of MBP-eAPP230-624 incubated with the agent; type: binding; conditions: for MWcalc/MWseq / Rg (radius of gyration) / Dmax (maximum dimension): MBP-eAPP230-624 incubated with 50 μM agent, 4° C., 1 hour; for MWcalc/MWseq: ± 0.2; for Rg (radius of gyration): ± 2; for Dmax (maximum dimension): ± 10; for Binding to APP (MBP-eAPP230-624) and effect on conformation/dimerization: small-angle X-ray scattering, 50 μM agent
T1 construct: purified MBP-eAPP230-624 were incubated with 50 μM Disulfiram or 50 μM Sulfiram
T1 sequence (P05067 230-624 isoform P05067-4): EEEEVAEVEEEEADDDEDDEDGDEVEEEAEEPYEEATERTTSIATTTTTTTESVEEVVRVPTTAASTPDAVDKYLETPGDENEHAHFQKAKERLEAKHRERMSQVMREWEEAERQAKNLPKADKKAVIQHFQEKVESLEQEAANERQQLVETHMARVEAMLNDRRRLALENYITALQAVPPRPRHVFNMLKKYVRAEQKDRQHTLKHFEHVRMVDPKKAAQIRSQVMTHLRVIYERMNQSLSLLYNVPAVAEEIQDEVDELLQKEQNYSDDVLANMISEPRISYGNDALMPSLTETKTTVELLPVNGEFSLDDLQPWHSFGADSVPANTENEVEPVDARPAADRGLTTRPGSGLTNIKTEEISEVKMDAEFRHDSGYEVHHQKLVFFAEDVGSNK
Description: To 100 μg of purified MBP-eAPP230-624 were incubated with 50 μM Disulfiram or 50 μM Sulfiram in 20 mM sodium phosphate pH 7.4, 137 mM sodium chloride, 0.05% dimethyl sulfoxide at 4° C. for 1 hour. The control sample was incubated in the buffer alone. The samples were then concentrated to approximately 1.5 mg/ml using […] NML concentrators. Small-angle X-ray scattering data were collected using protein concentrations in the range of 0.25-1.5 mg/ml and an X-ray wavelength of 1.11 Å at beam line 12.3.1 (Advanced Light Source). Samples of the filtrate were used for buffer subtraction. Data were integrated with software customized for the beam line and processed with the program PRIMUS (Konarev (2003) Journal of Applied Crystallography 36, 1277-1282). The program GNOM (Svergun (1992) J. Appl. Crystallogr. 25, 495-503) was used to calculate the maximum dimension and the radius of gyration and to estimate the intensity of the scattering at zero angle for higher concentration samples. The molecule weight of each protein was calculated by comparing to the scattering of proteins of known molecule weight.
The apparent drop in molecular weight and maximum dimension (Dmax) are consistent with both sulfiram and disulfiram disrupting the MBP-eAPP230-624 dimers.

[2] = Brain uptake testing (PK): plasma and brain levels by LC/MS/MS; set-up: species or system mice; conditions: mouse, in vivo, sc; for Kp: 10 mg/kg
Description: In general, CNS exposure studies consisted of collection of heparinized plasma and brains after treatment with tropisetron, nimetazepam, disulfiram and honokiol following subcutaneous (sc) administration of the molecules at 10 mg/kg. Plasma and brain levels of the agent(s) were determined by quantitative LC/MS/MS methodology, conducted at Integrated Analytical Solutions (on the internet at ianalytical.net). Plasma samples were precipitated with acetonitrile:methanol (1:1) cocktail containing an internal standard. The brain samples were homogenized directly in ethylacetate or extracted from 5M guanidine homogenates using the liquid-liquid method. The resulting supernatant were evaporated to dryness and subjected to the LC/MS/MS analysis. For each agent 3 mice were used for analysis. The brain-to-plasma ratios and brain levels were then be calculated to identify the best candidate(s) for further testing.

[3] = tested on: sAPPα, Aβ40 and Aβ42 levels; experiment: Aβ40/42, sAPPα levels in brain (PD) of Alzheimer's disease transgenic mice (PDAPP model); type: in vivo; conditions: Tg mice; for sAPPα levels in hippocampus (Hip) and entorhinal cortex (ECx) / Aβ40 levels / Aβ42 levels: 10 mpk sc, 5 days
Description: […]® kits from Perkin Elmer (PE) were used to quantify sAPPα (cat#: AL254C), sAPPβ (cat#: AL232C), Aβ40 (cat #: AL275C), Aβ42 (cat #: AL276C) and Tau (cat#: AL271C) from brain homogenates. The samples are added to an AlphaPlate-384 (cat#: 6005350). Twenty microliters (μl) of acceptor bead antibody mix was added to each five μl cerebrospinal fluid (CSF) sample and allowed to incubate for one hour at room temperature. Next, 25 μl of donor beads were added and allowed to incubate in the dark for 30 minutes at room temperature. Fluorescence was then measured on an EnsPire 96-well plate reader (Perkin-Elmer).
ELISA kits from Invitrogen were also used to quantify Aβ1-40 (KHB3481) and Aβ1-42 (KHB3544) in duplicate from the CSF samples stored at −80° C. For assay, samples were thawed on ice and BSL-2 precautions practiced at all times. For the human Aβ 1-42 ultrasensitive ELISA, samples were diluted 1:2 (50 μl CSF plus 50 μl kit-provided standard diluent buffer). For the human Aβ1-40 ELISA, samples were diluted 1:15 (6.7 μl CSF plus […] of standard diluent buffer). Assays were performed according to manufacturer's instructions. In short, standards and samples were added to a plate pre-coated with a monoclonal capture antibody specific for the amino terminus of Hu Aβ. The samples were co-incubated with a rabbit detection antibody (Ab) specific for the carboxy terminus of the Aβ species being assayed for 3 hr at room temperature (Aβ 1-40) to overnight at 4° (Aβ 1-42) with gentle rocking After washing, bound rabbit Ab was detected using a horseradish peroxidase-labeled anti-rabbit secondary Ab. After washing again, bound HRP-anti rabbit Ab was detected colorimetrically (Spectramax 190, Molecular Devices) by the addition of a substrate solution. 1 mM 4-(2-Aminoethyl)benzenesulfonyl fluoride hydrochloride (AEBSF) protease inhibitor (101500, Calbiochem) was added to standards and samples.
In general, as part of the CNS exposure studies in Alzheimer's disease transgenic (Tg) mice (e.g., the PDAPP mouse model of Alzheimer's disease), tropisetron, nimetazepam, disulfiram and honokiol effects on biomarkers were also measured. In case of tropisetron the testing was done at 0.3 mpk, while in case of the other agent(s) (e.g., nimetazepam, disulfiram and honokiol) it was done at 10 mpk. From the collected brains the hippocampi were dissected. Levels of sAPPα, and Aβ1-40 and Aβ1-42 were measured by […] assay ([…] Perkin-Elmer), and Aβ1-42 (Invitrogen, sensitive ELISA kit) in brain homogenates of Tg mice. All procedures involved have been described (Galavan 2006, Proc Natl Acad Sci USA, 103, 7130-7135). […] The brain-to-plasma ratio (PK) of tropisetron and sAPPalpha/Aβ42 ratios (PD) were then determined.

[4] = tested on: 7W cells stably transfected with APP; experiment: […] assay in 7W APP transfected cells; type: cell-based; conditions: 1 μM agent, 24 h
Description: 7W CHO cells were seeded at 50,000 cells/well in a 96 wells plate for 24 h. Then their medium was changed for fresh medium supplemented with 1 μM of the agent(s) of interest (e.g., tropisetron, disulfiram, honokiol, and/or nimetazepam). After 24 h, 20 μl of the medium was added to 2 μl of the complete protease inhibitor with 1 μM EDTA and kept at 4° C. until analysis. 2 μl of that medium was treated with the Perkin Elmer (PE) […]® Aβ kit to determine the amount of Aβ42 secreted by the cells in 24 h using the PE-Enspire reader. Another aliquot of 2 μl of the medium was diluted with 50 μl of the PE […]® buffer and was treated with the PE […]® sAPPαkit to determine the amount of sAPPαsecreted by the cells in 24 h. For the assay, 2 μl of the final mixture was treated with the acceptor bead and the donor antibody followed by addition of the donor beads and the […]® signal was measured using a PE-Enspire reader. For measurement of APPneo, the 50,000 cells were treated after seeding with fresh medium supplemented with or without the agent(s), but without fetal bovine serum (FBS), in order to induce the formation of the APPneo fragment. After 24 h the medium was removed, the cells on the bottom of the wells were washed three times with phosphate buffered saline (PBS) and then lysed with 50 μl of the Perkin Elmer […]® buffer and with 10% of the complete protease inhibitor with EDTA. […]

[5] = Degradation in brain tissue; type: in vitro ADME; conditions: probably reduced at the disulfide bond
[6] = known for the benzodiazepine; cited from earlier work

SMILES	MWcalc/MWseq [1]	Rg (radius of gyration) [1]	Dmax (maximum dimension) [1]	Binding affinity compared with sulfiram ([1]; inferred from greater effect in X-ray scattering)	Binding to APP (MBP-eAPP230-624) and effect on conformation/dimerization [1]	Binding to APP (MBP-eAPP230-624) and effect on conformation/dimerization ([1]; listed as disulfiram)	blood-brain-barrier / brain penetration [2]	Kp [2]	Aβ levels ([3]; 10 mpk)	sAPPα levels in hippocampus (Hip) and entorhinal cortex (ECx) [3]	sAPPα levels secreted by 7W cells [4]	Stability in brain tissue [5]	Aβ40 levels [3]	Aβ42 levels [3]	sAPPα levels in hippocampus (Hip) and entorhinal cortex (ECx) ([3]; 10 mg/kg)	sAPPα levels in hippocampus (Hip) and entorhinal cortex (ECx) ([3]; listed as nimetazepam, 10 mg/kg)	blood-brain-barrier crossing [6]
CCN(CC)C(=S)SSC(=S)N(CC)CC [Disulfiram, 1,1′,1″,1′″-[disulfanediylbis(carbonothioylnitrilo)]tetraethane]	1.5	51 Å	160 Å	higher binding affinity	can bind to APP and disrupt APP dimerization	bind to MBP-eAPP230-624 and alter the conformation of the protein	low blood-brain-barrier penetration	< 0.1	no changes	no changes	increase	degrades rapidly	–	–	–	–	–
C=CCc1ccc(O)c(-c2ccc(O)c(CC=C)c2)c1 [Honokiol, 2-(4-hydroxy-3-prop-2-enyl-phenyl)-4-prop-2-enyl-phenol]	–	–	–	–	–	–	penetrates the brain well	~1	–	no significant increase	–	–	No significant changes	No significant changes	–	–	–
CN1C(=O)CN=C(c2ccccc2)c2cc([N+](=O)[O-])ccc21 [Nimetazepam, 2-methyl-9-nitro-6-phenyl-2,5-diazabicyclo [5.4.0]undeca-5,8,10,12-tetraen-3-one]	–	–	–	–	–	–	–	–	–	–	–	–	No significant changes	No significant changes	significant increase	increase	known to cross the blood-brain-barrier well
CCN(CC)C(=S)SC(=S)N(CC)CC [Sulfiram]	1.7	53 Å	170 Å	–	bind to MBP-eAPP230-624 and alter the conformation of the protein	–	–	–	–	–	–	–	–	–	–	–	–

From US20150030683A1, “FORMULATIONS AND METHODS FOR THE TREATMENT OR PROPHYLAXIS OF PRE-MCI AND/OR PRE-ALZHEIMER'S CONDITIONS” (BUCK INSTITUTE FOR RESEARCH ON AGING, priority 2012, published 2015)
